Laboratory results as given in ChEMBL document CHEMBL3400016, “Isolation, synthesis and anti-hepatitis B virus evaluation of p-hydroxyacetophenone derivatives from Artemisia capillaris” (Bioorg Med Chem Lett, 2015).

Key:
[1] = Cytotoxicity against human HepG 2.2.15 cells by MTT assay; format: cell-based, HepG2 2.2.15
[2] = system: Hepatitis B virus; test: Antiviral activity against hepatitis B viral in human HepG2.2.15 cells assessed as surface antigen HBsAg secretion after 72 hrs by ELISA; format: functional, organism-based; conditions: HepG2 2.2.15, 72 h
[3] = Selectivity index, ratio of CC50 for human HepG2.2.15 cells to IC50 for decrease in hepatitis B viral surface antigen HBsAg secretion in human HepG2(2.2.15) cells; format: functional
[4] = system: Hepatitis B virus; test: Antiviral activity against hepatitis B viral in human HepG2.2.15 cells assessed as […] antigen HBeAg secretion after 72 hrs by ELISA; format: functional, organism-based; conditions: HepG2 2.2.15, 72 h
[5] = system: Hepatitis B virus; test: Antiviral activity against hepatitis B viral in human HepG2.2.15 cells assessed as decrease in viral DNA replication treated for 7 days by real time PCR analysis; format: functional, organism-based; conditions: HepG2 2.2.15, 168 h
[6] = Selectivity index, ratio of CC50 for human HepG2.2.15 cells to IC50 for decrease in hepatitis B viral DNA replication in human HepG2(2.2.15) cells; format: functional
[7] = Selectivity index, ratio of CC50 for human HepG2.2.15 cells to IC50 for decrease in hepatitis B viral […] antigen HBeAg secretion in human HepG2(2.2.15) cells; format: functional

IC50 [2] [µM]	IC50 [4] [µM]	IC50 [5] [µM]	SMILES	CC50 [1] [µM]	Selectivity Index [3]	Selectivity Index [6]	Selectivity Index [7]
499	> 1520	16.8	COc1cccc(/C=C/C(=O)OC[C@H]2O[C@@H](Oc3ccc(C(C)=O)cc3)[C@H](O)[C@@H](O)[C@@H]2O)c1	> 1520	>3	>90.5	–
648	> 2580	88.8	COc1cc(C(=O)Oc2ccc(C(C)=O)cc2)cc(OC)c1OC	1210	1.9	13.6	–
434	> 1450	22.8	CC(=O)c1ccc(O[C@@H]2O[C@H](COC(=O)/C=C/c3cccc(F)c3)[C@@H](O)[C@H](O)[C@H]2O)cc1	828	1.9	36.5	–
286	> 2420	115	COc1cc(/C=C/C(=O)Oc2ccc(C(C)=O)cc2)cc(OC)c1OC	> 2420	>8.5	>21.1	–
2160	> 3350	837	CC(=O)c1ccc(OC(=O)c2ccccc2)cc1	> 3350	>1.5	–	–
3530	> 3710	> 927	CC(=O)c1ccc(OC(=O)c2cccs2)cc1	> 3710	>1	–	–
696	> 1450	8.8	COc1ccc(/C=C/C(=O)OC[C@H]2O[C@@H](Oc3ccc(C(C)=O)cc3)[C@H](O)[C@@H](O)[C@@H]2O)cc1OC	> 1450	>2.1	>165	–
1520	2210	> 777	CC(=O)c1ccc(OC(=O)/C=C/c2cccc(F)c2)cc1	> 3110	>2	–	>1.4
526	> 1480	5.8	COc1cc(/C=C/C(=O)OC[C@H]2O[C@@H](Oc3ccc(C(C)=O)cc3)[C@H](O)[C@@H](O)[C@@H]2O)cc(OC)c1OC	925	1.8	160.3	–
1830	> 4050	> 1010	CC(=O)c1ccc(OC(=O)c2ccco2)cc1	> 4050	>2.2	–	–
782	> 2080	18.5	COc1ccc(/C=C/C(=O)OC[C@H]2O[C@@H](Oc3ccc(C(C)=O)cc3)[C@H](O)[C@@H](O)[C@@H]2O)cc1	1540	2	83.2	–
> 3280	> 3280	> 820	COc1ccc(/C=C/C(=O)Oc2ccc(C(C)=O)cc2)cc1	> 3280	–	–	–
2400	> 2870	> 719	CC(=O)c1ccc(OC(=O)/C=C/c2ccccc2)cc1	> 2870	>1.2	–	–
546	> 3300	154	CC(=O)c1ccc(OC(=O)c2cccnc2)cc1	3010	5.5	19.5	–
1260	> 2780	> 696	COc1cccc(/C=C/C(=O)Oc2ccc(C(C)=O)cc2)c1	> 2780	>2.2	–	–
515	> 1770	22.5	CC(=O)c1ccc(O[C@@H]2O[C@H](COC(=O)/C=C/c3ccc(F)c(F)c3)[C@@H](O)[C@H](O)[C@H]2O)cc1	874	1.7	38.9	–
1890	> 3040	> 759	CC(=O)c1ccc(OC(=O)/C=C/c2ccc3c(c2)OCO3)cc1	> 3040	>1.6	–	–
1040	> 2620	100	COc1ccc(/C=C/C(=O)Oc2ccc(C(C)=O)cc2)cc1OC	> 2620	>2.5	>26	–

The remaining lines, values behind:

SMILES	IC50 [2] [µM]	IC50 [4] [µM]	IC50 [5] [µM]	CC50 [1] [µM]	Selectivity Index [3]	Selectivity Index [6]	Selectivity Index [7]
CC(=O)c1ccc(O[C@@H]2O[C@H](COC(=O)c3ccco3)[C@@H](O)[C@H](O)[C@H]2O)cc1	571	> 1880	101	1170	2.1	11.7	–
CC(=O)c1ccc(O[C@@H]2O[C@H](COC(=O)c3cccnc3)[C@@H](O)[C@H](O)[C@H]2O)cc1	1430	> 1650	103	> 1650	>1.2	>16	–
COc1cc(C(=O)OC[C@H]2O[C@@H](Oc3ccc(C(C)=O)cc3)[C@H](O)[C@@H](O)[C@@H]2O)cc(OC)c1OC	1350	> 1490	20.7	890	–	42.9	–
CC(=O)c1ccc(O[C@@H]2O[C@H](CO[C@@H]3OC[C@@H](O)[C@H](O)[C@H]3O)[C@@H](O)[C@H](O)[C@H]2O)cc1	> 2600	> 2600	38.5	> 2600	–	>67.5	–
CC(=O)c1ccc(O[C@@H]2O[C@H](COC(=O)/C=C/c3ccc(F)cc3)[C@@H](O)[C@H](O)[C@H]2O)cc1	613	> 1520	64.8	917	1.5	>23.4	–
CC(=O)c1ccc(O[C@@H]2O[C@H](COC(=O)/C=C/c3ccccc3)[C@@H](O)[C@H](O)[C@H]2O)cc1	> 1740	> 1740	67.3	> 1740	–	>25.9	–
CC(=O)c1ccc(O[C@@H]2O[C@H](COC(=O)/C=C/c3ccc4c(c3)OCO4)[C@@H](O)[C@H](O)[C@H]2O)cc1	698	> 1470	74.4	> 1470	>2.1	>19.8	–
CC(=O)c1ccc(O[C@@H]2O[C@H](COC(=O)c3ccccc3)[C@@H](O)[C@H](O)[C@H]2O)cc1	678	> 1680	93.7	1050	1.5	11.2	–
CC(=O)c1ccc(O[C@@H]2O[C@H](COC(=O)c3cccs3)[C@@H](O)[C@H](O)[C@H]2O)cc1	301	> 1710	31.4	1570	5.2	50.1	–
CC(=O)c1ccc(O[C@@H]2O[C@H](CO)[C@@H](O)[C@H](O)[C@H]2O)cc1 [PICEIN]	> 3950	> 3950	228	> 3950	–	>17.3	–
COc1cc(O[C@@H]2O[C@H](CO)[C@@H](O)[C@H](O)[C@H]2O)cc(O)c1C(C)=O	> 2370	> 2370	92	> 2370	–	>25.7	–
C[C@H](Cn1cnc2c(N)ncnc21)OCP(=O)(O)O [TENOFOVIR ANHYDROUS]	> 1740	> 1740	2.9	> 1740	–	>600.8	–
